US9518066B2, “GAK modulators” (KATHOLIEKE UNIVERSITEIT LEUVEN, priority 2013, dated 2016)

Biological target: T1, GAK kinase (Homo sapiens, UniProt O14976)
T1 construct: made in house; host or cells: E. coli host derived from the BL21 strain, infected with T7 phage
T1 sequence (O14976 1-1311): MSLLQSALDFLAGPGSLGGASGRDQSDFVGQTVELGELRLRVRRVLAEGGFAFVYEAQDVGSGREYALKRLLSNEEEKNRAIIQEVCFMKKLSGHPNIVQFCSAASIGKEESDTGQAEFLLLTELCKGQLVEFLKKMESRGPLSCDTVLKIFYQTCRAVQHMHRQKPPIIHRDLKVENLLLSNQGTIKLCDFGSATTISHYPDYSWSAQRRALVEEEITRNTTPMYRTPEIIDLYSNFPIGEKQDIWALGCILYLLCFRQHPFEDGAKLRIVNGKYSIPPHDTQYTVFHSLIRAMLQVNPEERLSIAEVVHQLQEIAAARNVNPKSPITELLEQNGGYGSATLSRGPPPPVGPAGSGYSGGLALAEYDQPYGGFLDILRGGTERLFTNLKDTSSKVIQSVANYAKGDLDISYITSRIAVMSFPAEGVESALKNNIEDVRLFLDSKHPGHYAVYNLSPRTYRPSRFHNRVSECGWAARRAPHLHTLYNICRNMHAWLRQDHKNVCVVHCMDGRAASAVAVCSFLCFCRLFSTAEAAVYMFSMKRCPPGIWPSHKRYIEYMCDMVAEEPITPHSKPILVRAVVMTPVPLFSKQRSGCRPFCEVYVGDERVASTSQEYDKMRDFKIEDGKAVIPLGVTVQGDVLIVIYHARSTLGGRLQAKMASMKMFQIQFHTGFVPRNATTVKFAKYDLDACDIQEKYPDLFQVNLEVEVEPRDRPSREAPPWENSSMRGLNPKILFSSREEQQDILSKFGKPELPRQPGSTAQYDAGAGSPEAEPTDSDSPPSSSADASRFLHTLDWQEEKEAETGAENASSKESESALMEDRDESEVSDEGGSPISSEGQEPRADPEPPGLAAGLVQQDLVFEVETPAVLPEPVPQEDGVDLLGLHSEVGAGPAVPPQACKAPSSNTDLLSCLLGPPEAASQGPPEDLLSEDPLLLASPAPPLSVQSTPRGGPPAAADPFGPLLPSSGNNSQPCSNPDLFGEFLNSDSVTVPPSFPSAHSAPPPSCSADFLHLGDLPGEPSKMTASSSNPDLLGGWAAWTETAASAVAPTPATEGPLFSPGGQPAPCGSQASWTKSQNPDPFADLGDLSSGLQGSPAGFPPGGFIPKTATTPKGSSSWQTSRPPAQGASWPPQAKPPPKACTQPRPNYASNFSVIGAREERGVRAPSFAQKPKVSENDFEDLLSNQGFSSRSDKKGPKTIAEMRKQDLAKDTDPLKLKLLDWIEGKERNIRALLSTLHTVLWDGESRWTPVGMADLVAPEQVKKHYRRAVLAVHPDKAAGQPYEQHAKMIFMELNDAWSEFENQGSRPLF
Experiment: GAK binding assay (T7 phage kinase competition binding)
Conditions: for remaining binding at 10 µM: single concentration of 10 μM, lower numbers indicate stronger hits, read-out: % Ctrl; for Kd: determined for selected compounds with % control <5 at 10 μM
Method: The compounds of the invention were assayed for their GAK kinase binding affinity using the protocols, as described in Fabian, M. A. et al. A small molecule-kinase interaction map for clinical kinase inhibitors. Nat. Biotechnol.
T7 kinase-tagged phage strains were grown in parallel in 24- or 96-well blocks in an E. coli host derived from the BL21 strain. E. coli were grown to log phase and infected with T7 phage from a frozen stock (multiplicity of infection ˜0.1) and incubated with shaking at 32° C. until lysis (˜90 min). The lysates were centrifuged (6,000 g) and filtered ([…]) to remove cell debris. […] The liganded beads were blocked with excess biotin and washed with blocking buffer (SeaBlock (Pierce), 1% BSA, 0.05% Tween 20, 1 mM DTT) to remove unbound ligand and to reduce nonspecific phage binding. […] Test compounds were prepared as 1,000× stocks in DMSO and rapidly diluted into the aqueous environment (0.1% DMSO final). DMSO (0.1%) was added to control assays lacking a test compound. All reactions were carried out in polystyrene 96-well plates that had been pretreated with blocking buffer in a final volume of 0.1 ml. […] The phage titer in the eluates was measured by standard plaque assays or by quantitative PCR.
The compounds were tested at a single concentration of 10 μM.
[formula] Binding Constant Measurements
Kd(probe) is the binding constant for the interaction between the kinase and the immobilized ligand, [Probe] is the concentration of the immobilized ligand and [test]1/2 is the concentration of the free test compound at the midpoint of the transition. If [Probe] is below Kd(probe) the expression simplifies to Kd(test)=[test]1/2. Under these conditions the binding constants measured for the interaction between kinases and test compounds (Kd(test)) are therefore independent of the affinity of the immobilized ligand for the kinase (Kd(probe)). T7 phage grow to a titer of 10^8-10^10 plaque forming units (PFU)/ml, and the concentration of phage-tagged kinase in the binding reaction is therefore in the low picomolar range. […] Clustering and visualization was performed with Cluster 3.0 (M. Eisen, Stanford University) and Mapletree software (M. Eisen, Stanford University; L. Simirenko, Lawrence Berkeley National Lab).

Row | remaining binding at 10 µM | Kd | Compound | % Ctrl (10 µM)
1 | 9% | – | COC(=O)c1ccc(-c2cnc3c(N4CCOCC4)snc3c2)cc1 [Example 53, Methyl 4-(3-morpholinoisothiazolo[4,3-b]pyridin-6-yl)benzoate] | –
2 | 31% | – | COc1ccc(-c2cnc3csnc3c2)cc1OC [Example 85, 6-(3,4-dimethoxyphenyl)isothiazolo[4,3-b]pyridine] | –
3 | 0% | 82 nM | COc1ccc(-c2cnc3c(N4CCOCC4)snc3c2)cc1OC(C)=O [Example 62, 2-methoxy-5-(3-morpholinoisothiazolo[4,3-b]pyridin-6-yl)phenyl acetate] | –
4 | 1.1% | 180 nM | COc1cc(Br)c(-c2cnc3c(N4CCOCC4)snc3c2)cc1OC [Example 60, 4-(6-(2-bromo-4,5-dimethoxyphenyl)isothiazolo[4,3-b]pyridin-3-yl)morpholine] | –
5 | 0.85% | 210 nM | COc1ccc(-c2cnc3c(NCCCCCO)snc3c2)cc1OC [Example 67, 5-(6-(3,4-dimethoxyphenyl)isothiazolo[4,3-b]pyridin-3-ylamino)pentan-1-ol] | –
6 | 0.05% | 52 nM | COc1ccc(-c2cnc3c(-c4ccncc4)snc3c2)cc1OC [Example 83, 6-(3,4-dimethoxyphenyl)-3-(pyridin-4-yl)isothiazolo[4,3-b]pyridine] | –
7 | 0.05% | 210 nM | CCN(CC)c1snc2cc(-c3ccc(OC)c(OC)c3)cnc12 [Example 79, 6-(3,4-dimethoxyphenyl)-N,N-diethylisothiazolo[4,3-b]pyridin-3-amine] | –
8 | 0.05% | 88 nM | CNC(=O)c1ccc(-c2cnc3c(N4CCOCC4)snc3c2)cc1 [Example 54, N-Methyl-4-(3-morpholinoisothiazolo[4,3-b]pyridin-6-yl)benzamide] | –
9 | 0.6% | 140 nM | COc1ccc(-c2cnc3c(N4CCOCC4)snc3c2)cc1 [Example 63, 4-(6-(4-methoxyphenyl)isothiazolo[4,3-b]pyridin-3-yl)morpholine] | –
10 | 92% | – | COc1cc(Br)c(-c2cnc3c(N4CCC(C)CC4)snc3c2)cc1OC [Example 86, 6-(2-bromo-4,5-dimethoxyphenyl)-3-(4-methylpiperidin-1-yl)isothiazolo[4,3-b]pyridine] | –
11 | 0.05% | 69 nM | COc1ccc(-c2cnc3c(N4CCCC(O)C4)snc3c2)cc1OC (stereo not shown) [Example 68, 1-(6-(3,4-dimethoxyphenyl)isothiazolo[4,3-b]pyridin-3-yl)piperidin-3-ol] | –
12 | 100% | – | COc1snc2cc(Br)cnc12 [Example 14, 3-methoxy-6-bromo-isothiazolo[4,3-b]pyridine] | –
13 | 2.6% | 330 nM | COc1ccc(-c2cnc3c(NCC(O)CO)snc3c2)cc1OC (stereo not shown) [Example 71, 3-(6-(3,4-dimethoxyphenyl)isothiazolo[4,3-b]pyridin-3-ylamino)propane-1,2-diol] | –
14 | 0% | 31 nM | COc1ccc(-c2cnc3c(N4CCC(=O)CC4)snc3c2)cc1OC [Example 65, 1-(6-(3,4-dimethoxyphenyl)isothiazolo[4,3-b]pyridin-3-yl)piperidin-4-one] | –
15 | 0.15% | 260 nM | COc1ccc(-c2cnc3c(-c4ccccc4)snc3c2)cc1OC [Example 82, 6-(3,4-dimethoxyphenyl)-3-phenylisothiazolo[4,3-b]pyridine] | –
16 | 0% | 140 nM | COc1ccc(-c2cnc3c(-c4ccsc4)snc3c2)cc1OC [Example 84, 6-(3,4-dimethoxyphenyl)-3-(thiophen-3-yl)isothiazolo[4,3-b]pyridine] | –
17 | 9.4% | – | COc1snc2cc(-c3ccccc3)cnc12 [Example 33, 3-methoxy-6-phenyl-isothiazolo[4,3-b]pyridine] | –
18 | 40% | – | CCOC(=O)N1CCC(Nc2snc3cc(-c4ccc(OC)c(OC)c4)cnc23)CC1 [Example 72, ethyl 4-(6-(3,4-dimethoxyphenyl)isothiazolo[4,3-b]pyridin-3-ylamino)piperidine-1-carboxylate] | –
19 | 97% | – | Nc1snc2cc(Br)cnc12 [Example 3, 3-amino-6-bromo-Isothiazolo[4,3-b]pyridine] | –
20 | 19% | – | COc1ccc(-c2cnc3c(OC)snc3c2)cc1OC [Example 36, 3-methoxy-6-(3,4-dimethoxyphenyl)-isothiazolo[4,3-b]pyridine] | –
21 | 50% | – | Brc1cnc2c(N3CCOCC3)snc2c1 [Example 11, 6-bromo-3-morpholino-isothiazolo[4,3-b]pyridine] | –
22 | 0.05% | 180 nM | COc1cccc(-c2cnc3c(N4CCOCC4)snc3c2)c1 [Example 61, 4-(6-(3-methoxyphenyl)isothiazolo[4,3-b]pyridin-3-yl)morpholine] | –
23 | 2.8% | 19 nM | COC(=O)c1ccc(-c2cnc3c(N4CCOCC4)snc3c2)cc1OC [Example 46, Methyl 2-methoxy-4-(3-morpholinoisothiazolo[4,3-b]pyridin-6-yl)benzoate] | –
24 | 93% | – | COc1snc2cc(-c3cccnc3)cnc12 [Example 35, 3-methoxy-6-(3-pyridyl)-isothiazolo[4,3-b]pyridine] | –
25 | 4.3% | 330 nM | CCOc1snc2cc(-c3cc(OC)c(OC)cc3Br)cnc12 [Example 87, 6-(2-bromo-4,5-dimethoxyphenyl)-3-ethoxyisothiazolo[4,3-b]pyridine] | –
26 | 12% | – | COc1ccc(-c2cnc3c(N4CCC5(CC4)OCCO5)snc3c2)cc1OC [Example 81, 8-(6-(3,4-dimethoxyphenyl)isothiazolo[4,3-b]pyridin-3-yl)-1,4-dioxa-8-azaspiro[4.5]decane] | –
27 | – | – | 6-bromo-6-ethanolamino-isothiazolo[4,3-b]pyridine [Example 12] | 62%

Row | Compound | remaining binding at 10 µM | Kd | % Ctrl (10 µM)
28 | COc1snc2cc(-c3ccsc3)cnc12 [Example 37, 3-methoxy-6-(3-thienyl)-isothiazolo[4,3-b]pyridine] | 22% | – | –
